As a reminder, the Ki is the dissociation constant of the complex between target and ligand, obtained from inhibition or displacement.

Like-named read-outs stand apart in the source and are kept apart here.

Six compounds from patent publication US20040038855A1 (priority 1999, published 2004) can be followed below.

One experiment has as its target T1, rat MCH1 receptor (Rattus norvegicus, UniProt P97639).
T1 construct: expressed in transfected cells
The experiment can be described thus: Binding affinity (Ki) at the rat MCH1 receptor.

Experiment [1] concerns the target T2, human Histamine H1 receptor (Homo sapiens, UniProt P35367).
T2 construct: expressed in transfected cells
In words: Binding affinity at the human histamine H1 receptor. The settings on record: Table 3c; read-out: hH1 Ki. In a few lines:
(§1)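 Receptor binding read-out throughout; membranes expressing human D1 or D2 receptor were used for those two targets.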

Experiment [2] deals with micturition reflex, conscious male Sprague Dawley rats. The experiment can be described thus: Continuous Slow Transvesicular Infusion (CSTI) rat model. Type of experiment: in vivo. On the set-up: key to Effect of MCH1 antagonist in the CSTI model: B = Produced an increase in bladder capacity in rats relative to baseline capacity. The settings on record: bladder capacity, intragastric. The protocol:
The effects of compounds on the micturition reflex were assessed in the “distension-induced rhythmic contraction” (DIRC), as described in previous publications (e.g. Maggi et al, 1987; Morikawa et al, 1992), and Continuous Slow Transvesicular Infusion (CSTI) models in rats. Male Sprague Dawley rats weighing approximately 300 g were used for the study. Rats were anaesthetized with pentobarbitone sodium (50 mg/kg, i.p). Through a median abdominal incision, bladder was exposed and a polyethylene cannula (PE 50) was introduced into the bladder through a small cut on the dome of the bladder and the cannula was secured with a purse string suture. The other end of the cannula was exteriorized subcutaneously at the dorsal neck area. Similarly, another cannula (PE 50) was introduced into the stomach through a paramedian abdominal incision with the free end exteriorized subcutaneously to the neck region. The surgical wounds were closed with silk 4-0 suture and the animal was allowed to recover with appropriate post surgical care. On the following day, the animal was placed in a rat restrainer. The open end of the bladder cannula was connected to a pressure transducer as well as infusion pump through a three-way stopcock. The bladder voiding cycles were initiated by continuous infusion of normal saline at the rate of 100 ul/min. The repetitive voiding contractions were recorded on a Power Lab on-line data acquisition software. After recording the basal voiding pattern for an hour, the test drug or vehicle was administered directly into stomach through the intragastric catheter and the voiding cycles were monitored for 5 hours. Micturition pressure and frequency were calculated before and after the treatment (at every 30 min interval) for each animal. Bladder capacity was calculated from the micturition frequency, based on the constant infusion of 100 ul/min. The effect of the test drug was expressed as a percentage of basal, pre-drug bladder capacity. WAY 100635 was used as positive control for comparison.

The target in experiment [3] is T3, human Dopamine D2 receptor (Homo sapiens, UniProt P14416).
T3 construct: purchased BioSignal, Inc. (Montreal, Canada)
The experiment can be described thus: Binding affinity at the human dopamine D2 receptor. As to conditions: Table 3c; read-out: hD2 Ki. In a few lines: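 D5 receptor binding is run per one prior patent's protocol, while dopamine and α2 adrenergic binding follow another; human D1 and D2 receptors were supplied as expressing cell membranes.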

Experiment [4] addresses T4, human Alpha-1a Adrenergic receptor (Homo sapiens, UniProt P35348).
T4 construct: expressed in transfected cells
T4 sequence (P35348 1-466): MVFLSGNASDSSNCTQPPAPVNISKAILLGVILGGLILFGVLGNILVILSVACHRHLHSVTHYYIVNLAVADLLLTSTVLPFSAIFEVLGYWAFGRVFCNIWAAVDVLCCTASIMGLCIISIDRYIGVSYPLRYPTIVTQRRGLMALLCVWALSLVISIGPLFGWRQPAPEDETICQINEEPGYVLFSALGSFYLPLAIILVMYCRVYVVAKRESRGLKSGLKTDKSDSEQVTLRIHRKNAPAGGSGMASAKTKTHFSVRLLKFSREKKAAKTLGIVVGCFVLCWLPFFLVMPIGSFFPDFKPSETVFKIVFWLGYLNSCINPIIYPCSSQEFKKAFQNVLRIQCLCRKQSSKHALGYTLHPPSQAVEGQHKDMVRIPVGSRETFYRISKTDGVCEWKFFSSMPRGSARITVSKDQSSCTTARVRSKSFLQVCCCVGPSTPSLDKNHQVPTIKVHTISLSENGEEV
In words: Binding affinity at the human alpha-1A adrenergic receptor. The settings on record: Table 3c; read-out: hAlpha-1a Ki. In a few lines: as §1

Experiment [5] addresses T5, human MCH1 receptor (Homo sapiens, UniProt Q99705). In words: Saturation and competition binding of [3H]Compound 10, membranes of Cos-7 cells transfected with MCH1. The arrangement: expressed in transfected cells; host or cells: COS-7. The settings on record: room temperature, 90 min; read-out: Kd (Scatchard analysis of saturation binding). As for the experimental part:
Saturation equilibrium binding of [3H]Compound 10 to the human MCH1 receptor. Membrane preparations from Cos-7 cells transfected with MCH1 were incubated with varying concentrations of [3H]Compound 10 (SA: 56 Ci/mmol) at room temperature for 90 min, in a volume of 0.250 ml. The reaction was terminated by filtration in GF/C filters, and the radioactivity determined by scintillation counting. Non-specific binding was defined as the amount of radioactivity retained in the filter after incubating the reaction mixture in the presence of unlabeled Compound 10 ([…]).
Competition binding of [3H]Compound 10 to the human MCH1 receptor. […] The reaction was terminated by filtration in GF/C filters and the radioactivity bound to the membrane was determined by scintillation counting.
[3H]Compound 10 was tested for its ability to bind to membrane preparations of cells expressing the human MCH1 receptor.

Experiment [6] deals with T5, human MCH1 receptor. In kind it is cell-based. The arrangement: expressed in transfected cells; host or cells: COS-7. As to conditions: agonist challenge. As for the experimental part: Guidelines for cell preparation and assay of the second messenger inositol phosphate (IP) are described below for a typical protocol involving transiently transfected Cos-7 cells; For a 96 well microplate format assay, cells are plated at 70,000 cells per well and allowed to incubate for 24 hours after the transfection procedure. The cells are then labeled with 0.5 μCi [^3H]myo-inositol per micro-well over night at 37° C., 5% CO2. Immediately before the assay, the medium is removed and replaced with 90 μl PBS containing 10 mM LiCl. The plates are then incubated for 15 minutes at 37° C., […]. Following the incubation, the transfectants are challenged with agonist (10 μl/well; 10× concentration) for 30 minutes at 37° C., 5% CO2. The challenge is terminated and the cells lysed by the addition of 100 μl cold 5% v/v trichloroacetic acid (TCA), followed by an incubation at 4° C. for greater than 30 minutes. Total IPs are isolated from the lysate by ion exchange chromatography. Briefly, the lysed contents of the wells are transferred to a Multiscreen HV filter plate (Millipore) containing 100 μl Dowex AG1-X8 suspension (50% v/v, water:resin) (200-400 mesh, formate form). The filter plates are placed on a vacuum manifold to wash and elute the resin bed. Each well is first washed 2 times with 200 μl 5 mM myoinositol. Total [^3H]IPs are eluted with 75 μl of 1.2 M ammonium formate/0.1 M formic acid into Wallac 96-well plates. 200 μl of SuperMix scintillation cocktail is added to each well, mixed well, allowed to equilibrate and counted on a Micro Beta Trilux scintillation counter. (Note: The assay may be scaled to a 24 well format by simple adjustment of reagent volumes and employing individual chromatographic columns.)
The expression vector (pEXJ) containing the MCH1 cDNA was transfected by electroporation into Cos-7 cells in combination with an expression vector (pEXJ) containing the Gα16 subunit.

Where [7] appears, read: Examples 38-141, read-out: Ki (nM) rMCH1.

T1 sequence (P97639 whole entry): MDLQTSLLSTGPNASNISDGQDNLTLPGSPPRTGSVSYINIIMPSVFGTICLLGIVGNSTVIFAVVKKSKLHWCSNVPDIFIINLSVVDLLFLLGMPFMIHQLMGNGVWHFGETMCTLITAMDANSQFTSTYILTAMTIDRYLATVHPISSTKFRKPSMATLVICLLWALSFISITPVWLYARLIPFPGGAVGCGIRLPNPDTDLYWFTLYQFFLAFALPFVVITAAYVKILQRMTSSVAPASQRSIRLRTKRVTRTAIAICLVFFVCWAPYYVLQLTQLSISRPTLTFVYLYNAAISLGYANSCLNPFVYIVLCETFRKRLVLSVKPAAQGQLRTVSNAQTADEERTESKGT
T5 sequence (Q99705 whole entry): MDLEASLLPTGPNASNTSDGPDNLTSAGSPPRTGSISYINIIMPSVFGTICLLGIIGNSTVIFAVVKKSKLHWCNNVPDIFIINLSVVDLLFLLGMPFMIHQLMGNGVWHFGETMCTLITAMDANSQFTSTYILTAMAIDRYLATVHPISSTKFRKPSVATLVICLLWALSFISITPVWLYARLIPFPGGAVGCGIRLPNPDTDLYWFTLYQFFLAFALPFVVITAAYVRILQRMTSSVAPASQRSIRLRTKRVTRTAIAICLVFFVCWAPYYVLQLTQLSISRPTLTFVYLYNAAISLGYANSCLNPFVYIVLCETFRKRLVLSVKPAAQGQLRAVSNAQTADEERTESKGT
T3 sequence (P14416 whole entry): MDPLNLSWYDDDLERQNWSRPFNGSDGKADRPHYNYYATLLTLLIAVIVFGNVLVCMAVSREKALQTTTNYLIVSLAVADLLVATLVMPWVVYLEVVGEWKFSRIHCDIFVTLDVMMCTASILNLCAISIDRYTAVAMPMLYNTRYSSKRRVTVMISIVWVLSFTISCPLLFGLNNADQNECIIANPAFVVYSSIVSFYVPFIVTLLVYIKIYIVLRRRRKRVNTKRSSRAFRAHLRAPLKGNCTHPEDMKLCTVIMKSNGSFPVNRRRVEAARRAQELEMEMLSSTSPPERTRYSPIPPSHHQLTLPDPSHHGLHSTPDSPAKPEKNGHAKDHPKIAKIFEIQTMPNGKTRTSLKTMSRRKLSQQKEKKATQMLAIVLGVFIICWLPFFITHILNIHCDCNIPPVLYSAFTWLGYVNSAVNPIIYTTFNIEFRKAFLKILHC
T2 sequence (P35367 whole entry): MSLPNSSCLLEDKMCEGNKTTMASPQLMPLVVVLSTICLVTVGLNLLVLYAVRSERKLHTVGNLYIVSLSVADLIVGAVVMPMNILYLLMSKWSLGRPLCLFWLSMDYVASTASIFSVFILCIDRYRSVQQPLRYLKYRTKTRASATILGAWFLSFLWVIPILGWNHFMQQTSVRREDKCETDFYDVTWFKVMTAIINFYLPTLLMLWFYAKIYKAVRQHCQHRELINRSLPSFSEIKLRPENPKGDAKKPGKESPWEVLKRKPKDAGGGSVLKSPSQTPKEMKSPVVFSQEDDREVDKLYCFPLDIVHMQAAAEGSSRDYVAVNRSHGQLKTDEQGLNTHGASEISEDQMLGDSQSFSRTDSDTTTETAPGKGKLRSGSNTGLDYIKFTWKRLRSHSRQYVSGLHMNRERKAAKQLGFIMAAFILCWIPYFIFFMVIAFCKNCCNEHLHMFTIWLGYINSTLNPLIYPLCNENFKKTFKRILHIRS

Regarding `COCC1=C(C(=O)OC)[C@H](c2ccc(F)c(F)c2)N(C(=O)NCCCN2CCC(c3cccc(NC(=O)C(C)C)c3)CC2)C(=O)N1` [Example 43, METHYL (4S)-4-(3,4-DIFLUOROPHENYL)-3-{[(3-{4-[3-(ISOBUTYRYLAMINO)PHENYL]-1-PIPERIDINYL}PROPYL)AMINO]CARBONYL}-6-(METHOXYMETHYL)-2-OXO-1,2,3,4-TETRAHYDRO-5-PYRIMIDINECARBOXYLATE], the Ki at rat MCH1 receptor (setting [7]) came to 0.23 nM; on rat MCH1 receptor (Table 3c, read-out: rMCH1 Ki) it was 0.23 nM; in experiment [1], 10.8 µM; in experiment [3], 3.57 µM; in experiment [4], 0.0219 µM. For the same compound, the “Effect of MCH1 antagonist in the CSTI model” value (from here on “Effect of MCH1 antagonist”) in experiment [2] is recorded as “B”.

For `Cc1ccc(C(=O)CCCN2CCC(c3cccc(NC(=O)C(C)C)c3)CC2)cc1C` [Example 58], the Ki was found to be 3.9 nM on rat MCH1 receptor (setting [7]); 3.9 nM at rat MCH1 receptor (Table 3c, read-out: rMCH1 Ki); 0.7 µM in experiment [1]; 2.84 µM in experiment [3]; 0.0321 µM in experiment [4]. For the same compound, the “Effect of MCH1 antagonist” value in experiment [2] is “B”.

`CC(C)C(=O)Nc1cccc(C2CCN(CCCC(=O)c3ccc(Cl)cc3)CC2)c1` [Example 66]: the Ki at rat MCH1 receptor (setting [7]) was 2.8 nM; on rat MCH1 receptor (Table 3c, read-out: rMCH1 Ki) it was 2.8 nM; in experiment [1] it was 0.461 µM; in experiment [3] it was 0.862 µM; in experiment [4], 0.0194 µM. Further, the “Effect of MCH1 antagonist” value in experiment [2] is “B”.

In the case of `COCC1=C(C(=O)OC)[C@H](c2ccc(F)c(F)c2)N(C(=O)NCCCN2CCC(c3cccc(NC(C)=O)c3)CC2)C(=O)N1` [[3H]Compound 10, TRITIATED METHYL (4S)-3-{[(3-{4-[3-(ACETYLAMINO)PHENYL]-1-PIPERIDINYL}PROPYL)AMINO]CARBONYL}-4-(3,4-DIFLUOROPHENYL)-6-(METHOXYMETHYL)-2-OXO-1,2,3,4-TETRAHYDRO-5-PYRIMIDINECARBOXYLATE], on human MCH1 receptor [5], the Kd worked out at 0.00018 µM.

`O=C(CCCN1CCC(O)(c2ccc(Cl)cc2)CC1)c1ccc(F)cc1` [haloperidol]: the “dose-responsiveness of inositol phosphate formation” value at human MCH1 receptor [6] is given as “No dose-responsiveness”.

“dynorphin A1-13: compound tested for its ability to activate MCH1 (YGGFLRRIRPKLK)”: the “dose-responsiveness of inositol phosphate formation” value with human MCH1 receptor [6] is “No dose-responsiveness”.
